# In US6458838B1, “Adrenoleukodystrophy treatments” (Johns Hopkins University, priority 1999, dated 2002):
# “Also recorded” adds a separate entry of the source.
# Tests used:
# Format in all cases: cell-based
# ALDP = ALDP stabilization, cytological immunofluorescence with anti-ALDP antibody; conditions: human X-ALD primary fibroblasts with destabilizing missense mutations (A626T, R660W); 5 mM 4-PBA up to 10 days; data not shown
# Excerpt: Immunofluorescence and peroxisome counting. […] The anti-SKL (PTSI) antibody was a gift from S. Gould and the anti-Pex11α antibody was a gift from S. Mihalik. To count peroxisomes, we photographed immunofluorescence-stained cells after focusing on the cell nucleus, and determined the peroxisome number per cell with the aid of a colon counter after projecting the slides to enlarge the image.
# [1] = tested on: human primary fibroblasts; experiment: Phytanic acid oxidation ([2,3-3H]-phytanic acid, release of 3H-H2O); conditions: 5 mM 4-PBA for 10 days
# Excerpt: The increase in phytanic acid oxidation activity was significant (P<0.001 5(n=4) for X-ALD primary fibroblasts and P<0.013 (n=3) for normal primary fibroblasts). […] The relative amount of SCP2 protein was compared to the housekeeping gene β-actin.
# Phytanic acid oxidation occurs exclusively in the peroxisomal matrix and can therefore serve as a marker for peroxisomal function. […] SCP2 is a 15-kDa protein located exclusively in the peroxisomal matrix.
# Biochemical measurements. […] For VLCFA measurements, total lipids were extracted, converted to methyl esters, purified by TLC and subjected to capillary GC analysis as described. Duplicate assays were set up independently and were assayed on different days. C24:0 β-oxidation activity of human and mouse fibroblasts and human lymphoblastoid cells was determined by measuring their capacity to degrade [1-^14C]-C24:0 fatty acid (American Radiolabeled Chemicals, St Louis, Mo.) to water-soluble products as described. Phytanic acid oxidation was measured as described. Cells were incubated with [2,3-^3H]-phytanic acid for 24 hours, and the release of ^3H-H2O to the aqueous medium was determined (activity in pmol/hr per mg protein).
# acyl-CoA oxidase (AOX) = experiment: Semi-quantitative RT-PCR in primary fibroblasts; conditions: 5 mM 4-PBA
# Procedure: Semi-quantitative RT-PCR was done on the mRNA isolated from these cells (FIG. 1). […] In addition, the expression of acyl-CoA oxidase (AOX), the rate-limiting enzyme in VLCFA β-oxidation, was not affected. Although previous studies have reported that ALDR mRNA was not detectable in fibroblasts by either northern or RT-PCR analyses, those RT-PCR studies used about 66 ng of CDNA; we used about 250 ng of cDNA.
# In rodents PPARα expression is increased by peroxisomal proliferators. […] Thus, although the peroxisome proliferation response in mice may be, at least in part, through the documented PPARα pathway, the response in human cells seems to be through a newly discovered pathway that may involve Pex11α. […] This again indicates a newly discovered pathway for 4-PBA-induced peroxisome proliferation in humans and perhaps in rodents. AOX has been identified as the rate-limiting step in VLCFA β-oxidation.
# Semi-quantitative RT-PCR analysis. Total RNA from tissue culture cells (10^6-10^7 cells/sample) was isolated using TRizol Reagent™ (Life Technologies), treated with DNase I (100-200 units in 40 mM HCI, 10 mM NaCl, 6 mM MgCl2, pH 7.3), incubated at 37° C. for 30 min, extracted with phenol/chloroform, and precipitated with isopropanol. cDNA was generated using MMLV reverse transcriptase (RT) (Life Technologies). PCR was done in the linear range of amplification (determined for each primerpair-cDNA combination). For each cDNA sample, a ‘cocktail’ was prepared, containing PCR buffer (Promega), 200 µM of each DNTP, 1.5 mM MgCl2, 250 ng cDNA, 0.25 U of Taq polymerase (Promega) and […]. The ‘cocktail’ was divided into separate tubes containing cDNA specific primers.
# Primers. The PCR primers used are listed below. In the parentheses, h indicates human and m, mouse; this is followed by the gene name, product size and annealing temperature. For primer sequences, F is forward and R is reverse. […]
# ALDRP = experiment: Western blot with densitometry relative to β-actin; conditions: normal mouse fibroblasts, after 10 days of exposure; data not shown
# Excerpt: Open bars, untreated cells; hatched bars, treated cells.
# These findings indicate that ALDP1 and ALDRP may occupy equivalent domains within the peroxisomal membrane. This would agree with the observation that ALDP and ALDRP are generally expressed in different cell types.
# Western blot analysis. Tissue culture cells were scraped from tissue culture dishes using a policeman, into cold PBS solution and protease inhibitor cocktail (Boehringer). Samples were mixed (1:1) with 2× sample buffer. Total protein samples were fractionated by SDS-PAGE using a 7.5% gel using the method of Laemmlis'. […] Enhanced chemiluminescence (SuperSignal Substrate; Pierce, Rockford, Ill.) was used to detect bound antibody.
smiles,measurement,setting,value
"O=C(O)CCCc1ccccc1 [4-PBA, 4-Phenyl butyrate]",detectable ALDP after treatment,ALDP,did not result in detectable levels of ALDP
same,phytanic acid oxidation,[1]; X-ALD human primary fibroblasts,twofold increase
same,phytanic acid oxidation,[1]; normal human primary fibroblasts,twofold increase
same,AOX expression,"acyl-CoA oxidase (AOX); human fibroblasts, 2 days",not affected; also recorded: unchanged
same,AOX expression,"acyl-CoA oxidase (AOX); human fibroblasts, 10 days",remained unchanged
same,AOX expression,"acyl-CoA oxidase (AOX); mouse fibroblasts, 2 days",not affected; also recorded: unchanged
same,ALDRP protein level,ALDRP,not increased
